Test results taken from paper PMC7566913, “Dual Gene Delivery Reagents From Antiproliferative Alkylphospholipids for Combined Antitumor Therapy” (Frontiers in Chemistry, 2020).
Where “and” joins values, the source holds several entries; their conditions need not be identical. Equal entries are not always repeated. Where two headings read alike, the source gives them in different places.

Assays:
[1] = set-up: method as in Gaillard et al., 2019; conditions: ref Gaillard et al., 2019, cited from earlier work
[2] = set-up: method as in Gaillard et al., 2019; conditions: pyrene fluorescence; ref Gaillard et al., 2019; cited from earlier work
A549 cells [3] = system: A549 cells; set-up: method as in Gaillard et al., 2019; conditions: A549, 24 h at 37°C, MTT assay; ref Gaillard et al., 2019; cited from earlier work
H292 cells [4] = system: H292 cells; set-up: method as in Gaillard et al., 2019; conditions: H292, 24 h at 37°C, MTT assay; ref Gaillard et al., 2019; cited from earlier work
16HBE cells [5] = system: 16HBE cells; set-up: method as in Gaillard et al., 2019; conditions: 24 h at 37°C, MTT assay, ref Gaillard et al., 2019; cited from earlier work
[6] = set-up: method as in Gaillard et al., 2019; conditions: lipoplexes with pCMV-Gluc, N/P 3, 1 molar equivalent of DOPE; ref Gaillard et al., 2019; cited from earlier work
sheep RBC [7] = conditions: sheep RBC, 37°C, ref Gaillard et al., 2019, cited from earlier work
[8] = CMC/CAC by pyrene fluorescent probe technique in ultrapure water; type: physicochemical; conditions: pyrene fluorescence
Protocol: The pro-APL molecules have been specifically engineered so they can be metabolized in situ under a biological stimulus to revert to the parent APL with antiproliferative activity. […] We thus aimed to determine the self-assembly properties of the APL prodrugs. […] Pyrene is a probe which fluorescence is sensitive to the polarity of the solubilizing medium. […] Fluorescence measurements were carried out in ultrapure water and data obtained for the various APLs and their prodrugs are shown in Table 2.
Pro-APLs Self-Assembly Properties
Starting from a lipid film, compounds were […]

A549 cells [9] = experiment: Cytotoxicity, MTT assay, A549; type: cell-based, human; conditions: A549, 24 h at 37°C
Protocol: (§1) The cells were exposed for a 24-h period to increasing concentration of the pro-APLs, ranging from 500 nM to 1 mM, and cell viability was assessed using the MTT colorimetric assay (Mosmann, [1983]). For the three cell lines, viability decreased in a dose-dependent manner in response to APLs and pro-APLs (Supplementary Figures 2–4). Using the best-fit regression curve method, the IC50 value (concentration that provokes 50% inhibition of the cell growth) was calculated for each compound (Table 4). The three cell lines responded to the compounds with varying sensitivities. […] This is attributed to enzyme-mediated hydrolysis of the pro-APL compounds in the complemented culture medium or in the intracellular compartment, competing with pure pH-controlled chemical hydrolysis. According to its structure, a pro-APL may or not be a substrate for specific lipases and, thus, may or not be hydrolyzed into the parent cytotoxic compound. […]
(§2) At confluency, cells were released […]
(§3) Cells were seeded into 96-well plates (Becton-Dickinson) at the required density (vide supra) in 100 µL of serum containing culture medium. […]
(§4) Mitochondrial activity measurements (MTT assay) was used to assess cytotoxicity of the compounds.
(§5) Lipid samples were prepared from a lipid film (3.6 µmol of compound evaporated from an ethanolic solution) hydrated with aqueous glucose 5 % and vigorously vortexed for 20 s before serial dilution in aqueous glucose 5 %. For addition of lipid samples to cell culture, part of the culture medium in the culture plates prepared the day before (25 µL) was removed and replaced by lipid samples (25 µL). Negative control was obtained by adding glucose 5 % to the cells instead of lipoplexes.
(§6) After a 24-h incubation period at 37 °C, culture supernatant was removed, cells were carefully washed with PBS and MTT (100 µL, 0.5 mg/mL) in complete culture medium was added. After a 1-h incubation period at 37 °C, the MTT sol ution was removed and DMSO (100 µL) was added to lyse cells and dissolve reduced MTT. Intensity of MTT reduction was then evaluated by measuring absorbance at 492 nm. Viability of cells treated with lipids or lipoplexes was expressed as the percentage of the absorbance measured in untreated cells. Value for each sample is the mean of triplicate determinations (± SD). IC50 values were determined within the 95 % confidence interval using nonlinear regression analysis with the GraphPad Prism software (GraphPad Software, San […]
(§7) All data are representative of a triplicate determination and are presented as the mean ± SD.
(§8) Statistical significance between treatments was assessed by one-way analysis of variance (ANOVA) followed by the Dunnett multiple comparison test, using the Kaleidagraph 4.5 software (Synergy Software, Reading, PA, USA). Data were considered as statistically significant for p value less than

H292 cells [10] = experiment: Cytotoxicity, MTT assay, H292; type: cell-based, human
Protocol: as §1, §2, §3, §4, §5, §6, §7, §8

16HBE cells [11] = experiment: Cytotoxicity, MTT assay, 16HBE; type: cell-based, human; conditions: 24 h at 37°C
Protocol: as §1, §2, §3, §4, §5, §6, §7, §8

[12] = set-up: method as in Yaseen et al., 2005; conditions: Du Noüy ring method; ref Yaseen et al., 2005; cited from earlier work
[13] = Langmuir trough method, cited from earlier work
red blood cells (RBC) = conditions: cited from earlier work
sheep RBC [14] = experiment: Hemolytic activity, red blood cell leakage assay; conditions: 37°C
Protocol: To evaluate this hypothesis, the hemolytic activity of the APLs and pro-APLs was measured. Sheep RBC were incubated for 1 h with escalating doses of aqueous dispersion of the compounds at 37°C. At the end of the incubation period, hemoglobin leakage was determined spectrophotometrically.
Thus, in order to better characterize the hemolytic effect of the pro-APLs, the incubation period has been extended and release of hemoglobin was measured after 24 h.
Red blood cell (RBC) leakage assay was carried out according to a previously described procedure
(Evans et al, 2013). RBC were prepared from defibrinated sheep blood. Briefly, blood sample (5 mL) was centrifuged at 500 x g for 5 min. After removal of the yellow upper layer, an equal volume of

[15] = Hydrolytic stability of the APL prodrugs monitored by 31P-NMR; type: physicochemical
Description: Aqueous formulation of the APL prodrugs produces nanosized lipid aggregates that most likely enter cells through the endocytosis pathway. To produce the expected intrinsic antineoplastic effect, APL-derived phosphotriesters need to be processed into the bioactive parent APLs. The hydrolysis of the prodrugs may be under the control of a chemical stimulus, e.g., a pH decrease as observed during the maturation of endosomes, or of degradation enzymes that massively enter the endosome compartment when continuing to lysosomes. To get some information on the transformation of pro-APLs into APLs, we monitored the hydrolysis of these compounds over time, at pH 7.4 and 4.5, conditions that mimick the extracellular milieu and the environment of the late endosome, respectively. This monitoring was realized using ^31P-NMR spectroscopy, according to a previously reported method (Pierrat et al., [2013b]). Whatever the compound investigated, only one single ^31P resonance did appear during the course of the experiments, corresponding to that of the parent APL. This confirmed that hydrolysis of the pro-APLs selectively occurred at the acetal center. […] As a general trend, hydrolysis of the pro-APLs was […] under neutral conditions (i.e., pH 7.4) than under acidic ones (i.e., pH 4.5). […] Besides, substitution of one hydrogen atom with a methyl group on the acetal bridge accelerated the rate of hydrolysis of the prodrugs. […] Indeed, in biological media, the enzyme-mediated hydrolysis of such compounds can proceed far quicker than “simple” chemical hydrolysis under pH control (Pierrat et al., [2012]). […]

[16] = Particle size and zeta potential of lipoplexes by DLS; type: physicochemical; conditions: lipoplexes with pCMV-Gluc, 25 °C, 5 % glucose, N/P 3, 1 molar equivalent of DOPE
Description: The capacity of the pro-APLs to interact electrostatically with nucleic acids and form lipoplexes was checked by standard agarose gel electrophoresis. […] The size (hydrodynamic diameter) and charge (zeta potential, ζ) of the lipoplexes prepared at an N/P ratio of 3 with one molar equivalent of dioleoyl-sn-glycero-3-phosphatidylethanolamine (DOPE), a lipid with fusogenic properties (Hui et al., [1996]; Zuhorn et al., [2005]), were investigated by DLS (Supplementary Table 1).
as measured by DLS. Lipoplexes were prepared at 25 °C, in 5 % glucose, at a N/P ratio of 3 and with
1 molar equivalent of DOPE.
(Gaillard et al., 2019). Data are the mean of three independent measurements (± SD).

A549 cells [17] = experiment: Gene transfer efficiency, pCMV-Gluc luciferase reporter gene assay; type: cell-based, human
Description: The efficacy of the pro-APLs to mediate intracellular delivery of a plasmid DNA was examined in A549 human lung epithelial carcinoma cells using the pCMV-Gluc reporter gene encoding the luciferase of Gaussia princeps. This luciferase is secreted by cells and transgene expression can be conveniently assessed by standard bioluminescence measurements on aliquots of the cell culture supernatant, without need for prior cell lysis. Lipoplexes were formulated in glucose 5% at N/P ratios of 1, 3, and 5, with increasing amounts of DOPE as a helper lipid. They were deposited onto cells in the presence of 10% serum and luciferase activity was measured after 24 h (Figure 3). […] The influence of the nature of the pendant hydrophobic arm was also examined.
To investigate the effect of serum on the gene delivery properties of the APL prodrugs, cells were treated with lipoplexes in the presence of an increasing concentration of serum (Figure 5). Two DNA doses were considered.
Figure 5 Transfection efficiency of pro-APLs ME12 (A), PE12 (B), and EE12 (C) as a function of serum content. Pro-APL/DNA complexes were prepared at N/P 3, with 1 molar eq. of DOPE. A549 cells (6,000 cells/well) were seeded into 96-well plates in 100 μL of culture medium containing 10% serum. Twenty-four hours later, cell supernatant was replaced with culture medium complemented with increasing amounts of serum (from 10 to 75%) just before adding the lipoplexes (0.2 and 0.4 μg of DNA per well; light and deep purple bars, resp.). Control (light blue bar) refers to basal bioluminescence measured in untreated cells. […] Statistical significance vs. control. ***p < 0.001, **p < 0.01, *p < 0.05.

[18] = Homo sapiens, NCI-H292, H292, 24 h at 37°C

Compound	H120 (hydrolysis rate after a 120-h incubation period) ([1]; pH 4.5)	H120 (hydrolysis rate after a 120-h incubation period) ([1]; pH 7.4)	CMC (APLs) / CAC (pro-APLs) [2]	IC50 (A549 cells [3])	IC50 (H292 cells [4])	IC50 (16HBE cells [5])	Particle size of lipoplexes [6]	HA200 (hemolytic activity at 200 μM) (sheep RBC [7]; 1 h)	HA200 (hemolytic activity at 200 μM) (sheep RBC [7]; 24 h)	CMC (APLs) / CAC (pro-APLs) [8]	IC50 (A549 cells [9]; Homo sapiens)	IC50 (H292 cells [10]; [18])	IC50 (16HBE cells [11]; Homo sapiens)	HA200 (hemolytic activity at 200 μM) (sheep RBC [14]; 1 h)	other results
CCCCCCCC/C=C\CCCCCCCCCCCCOP(=O)(OCCCCCCCCCCCC)OCCC[N+](C)(C)C (centres unmarked) [Compound E12]	0%	0%	0.7 ± 0.3 µM	81 ± 7 µM	124 ± 11 µM	225 ± 31 µM	194 ± 28 nm and 194 nm	1.9 ± 0.7%	12.0 ± 1.9%						Hydrolytic stability after extended incubation ([1]; pH 7.4 and pH 4.5, 31 days): fully stable
CCCCCCCC/C=C\CCCCCCCCCCCCOP(=O)(OCCC[N+](C)(C)C)OC(C)OC(=O)CCCCCCCCCCC (centres unmarked) [E E^′12]	53%	56%	1.1 ± 0.7 µM	192 ± 44 µM	73 ± 15 µM	63 ± 7 µM	149 ± 15 nm		25.3 ± 2.6%						t1/2 (time needed for 50% hydrolysis) ([1]; pH 4.5): 104 h; t1/2 (time needed for 50% hydrolysis) ([1]; pH 7.4): 96 h
CCCCCCCCCCCCCCCCOP(=O)([O-])OCC[N+](C)(C)C [Miltefosine, reference compound]										11.2 ± 2.3 µM	77 ± 15 µM	70 ± 9 µM	73 ± 8 µM	90.8 ± 1.5%	CMC (APLs) / CAC (pro-APLs) ([8]; listed as miltefosine): 11.2 µM; CMC [12]: 12 µM; CMC ([13]; ref Rakotomanga et al., 2004): 2.5 to 3.0 µM; HC50 (red blood cells (RBC); depending on the hematocrit, ref Alonso and Alonso, 2016): 34 to 51 µM; HC50 (red blood cells (RBC); ref Petit et al., 2019): 41 µM; HC50 (concentration provoking 50% hemolysis) (sheep RBC [14]; 1 h): 43 µM
3-((((((Dodecyloxy)carbonyl)oxy)ethoxy)(hexadecyloxy)phosphoryl)oxy)-N,N,N-trimethylpropan-1-aminium chloride [M C^′12]										2.0 ± 0.7 µM					H120 (hydrolysis rate after a 120-h incubation period) ([15]; pH 4.5): 13%; H120 (hydrolysis rate after a 120-h incubation period) ([15]; pH 7.4): 14%; IC50 (A549 cells [9]): 48 ± 15 µM; IC50 (H292 cells [10]; H292, 24 h at 37°C): 146 ± 37 µM; IC50 (16HBE cells [11]): 66 ± 27 µM; Particle size of lipoplexes [16]: 91 ± 3 nm; Transfection rate relative to MC12 (A549 cells [17]; A549, pCMV-Gluc lipoplexes, 10% serum, 24 h): ca. 2 fold
CCCCCCCC/C=C\CCCCCCCCCCCCOP(=O)(OCCC[N+](C)(C)C)OC(C)OC(=O)OCCCCCCCCCCCC (centres unmarked) [E C^′12]	5%	6%	0.9 ± 0.2 µM	179 ± 63 µM	161 ± 25 µM	257 ± 81 µM	92 ± 10 nm	< 1%	7.3 ± 0.8%						
CCCCCCCCCCCCCCCCOP(=O)(OCC[N+](C)(C)C)OCOC(=O)CCCCCCCCCCC.[Cl-] (centres unmarked) [ME12, 2-((((Dodecanoyloxy)methoxy)(hexadecyloxy)phosphoryl)oxy)-N,N,N-trimethylethan-1-aminium chloride]										4.3 ± 2.5 µM	39 ± 7 µM	52 ± 28 µM	69 ± 26 µM	18.0 ± 1.2%	H120 (hydrolysis rate after a 120-h incubation period) ([15]; pH 4.5): 3%; H120 (hydrolysis rate after a 120-h incubation period) ([15]; pH 7.4): 20%; Particle size of lipoplexes [16]: 178 ± 8 nm; Serum content up to which significant transgene expression was mediated (A549 cells [17]; A549, N/P 3, 1 eq. DOPE, DNA dose 0.2 μg/well): up to 50 % serum; Serum content up to which transfection activity extended (A549 cells [17]; A549, N/P 3, 1 eq. DOPE, DNA dose 0.4 μg/well): up to 75 % serum; HA200 (hemolytic activity at 200 μM) (sheep RBC [14]; 24 h): 103.2 ± 3.6%
CCCCCCCCCCCCCCCCCCOP(=O)([O-])OC1CC[N+](C)(C)CC1 [Perifosine, reference compound]										4.4 ± 1.7 µM	127 ± 39 µM	77 ± 3 µM	116 ± 33 µM	85.1 ± 4.0%	CMC (APLs) / CAC (pro-APLs) ([8]; listed as perifosine): 4.4 µM; CMC ([13]; ref Mravljak et al., 2005): 2.5 µM; Hemolysis (red blood cells (RBC); 24-h exposure to 5.4 μM, ref Egler and Lang, 2017): ca. 30%; HC50 (concentration provoking 50% hemolysis) (sheep RBC [14]; 1 h): 46 µM
CCCCCCCC/C=C\CCCCCCCCCCCCOP(=O)(OCCC[N+](C)(C)C)OCOC(=O)OCCCCCCCC/C=C\CCCCCCCC (centres unmarked) [EC18:1]	0%	10%	0.8 ± 0.4 µM	326 ± 36 µM	154 ± 40 µM	238 ± 58 µM	611 ± 12 nm and 611 nm	< 1%	20.9 ± 2.5%						
